Source: BindingDB's records for doi:10.7270/Q24M92ZV (Nmmlsc, 2009)

Target: Ras-related C3 botulinum toxin substrate 1 (Mus musculus, UniProt P63001)
Assay: activated mutant Rac1 GTP binding inhibitors, SAR follow-up, biochemical, additional analogs, multiplex bead flow cytometry (AID 2039)

| Structure (SMILES) | EC50 [µM] |
| --- | --- |
| O=C1Nc2c(Cl)cccc2C1=C1Nc2ccccc2C1=O | 30 |
| O=C1Nc2c(Br)cccc2C1=C1Nc2ccccc2C1=O | 27.6 |
| O=C1Nc2c(F)cccc2C1=C1Nc2ccccc2C1=O | 30 |
| O=C1NC(=O)/C(=C2/C(=O)Nc3ccccc32)N1 | 11.6 |
| O=C1Nc2ccc(Br)cc2C1=C1Nc2ccccc2C1=O | 12.2 |
| O=C1Nc2ccccc2/C1=C1/Nc2ccccc2C1=O [2-[(3Z)-2-oxo-2,3-dihydro-1H-indol-3-ylidene]-2,3-dihydro-1H-indol-3-one] | 30 |
| O=C1N=c2ccccc2=C1c1[nH]c2ccccc2c1NO [3-[3-(hydroxyamino)-1H-indol-2-yl]-2-indolone] | 30 |
| O=C1N=c2ccc(Br)cc2=C1c1[nH]c2ccccc2c1NO [5-bromanyl-3-[3-(oxidanylamino)-1H-indol-2-yl]indol-2-one] | 32.7 |
| O=C1N=c2c(Br)cccc2=C1c1[nH]c2ccccc2c1NO [7-bromanyl-3-[3-(oxidanylamino)-1H-indol-2-yl]indol-2-one] | 30 |
| O=C1N=c2c(Cl)cccc2=C1c1[nH]c2ccccc2c1NO [7-chloro-3-[3-(hydroxyamino)-1H-indol-2-yl]-2-indolone] | 30 |
| O=C1N=c2c(F)cccc2=C1c1[nH]c2ccccc2c1NO [7-fluoro-3-[3-(hydroxyamino)-1H-indol-2-yl]-2-indolone] | 31.6 |
| O=C1NC(=S)N/C1=C1\C(=O)Nc2ccccc21 [(3Z)-3-(5-oxo-2-sulfanylideneimidazolidin-4-ylidene)-1H-indol-2-one] | 7 |
